# Measurements from PMC7545214, “Structural basis for energy transfer in a huge diatom PSI-FCPI supercomplex” (Nature Communications, 2020).
# Columns and labels:
# [1] = molecular target: T1, PSI core of the PSI-FCPI supercomplex (Chaetoceros neogracilis, UniProt A0A6J4B0E7+A0A6J4B109); assay: cryo-EM structure, […] Å; type: binding; details: two molecules bound to PsaA/B/R
# T1 construct: gene psaA; native purification from thylakoids with DDM; PsaS modelled as polyalanine; with Photosystem I iron-sulfur center; Photosystem I reaction center subunit II; Photosystem I reaction center subunit IV; Photosystem I reaction center subunit III; Photosystem I reaction center subunit VIII; Photosystem I reaction center subunit IX; Photosystem I reaction center subunit XI; Photosystem I reaction center subunit XII; Photosystem I subunit PsaR; Photosystem I subunit PsaS
# PsaR = molecular target: T2, PsaR (Chaetoceros neogracilis, UniProt A0A6J4B118); assay: cryo-EM structure, […] Å; type: binding; details: one molecule
# T2 construct: gene psa28; native, within the PSI-FCPI supercomplex; 89 residues, two transmembrane helices; next to PsaB and FCPI-8/9/10
# T2 sequence (A0A6J4B118 51-139): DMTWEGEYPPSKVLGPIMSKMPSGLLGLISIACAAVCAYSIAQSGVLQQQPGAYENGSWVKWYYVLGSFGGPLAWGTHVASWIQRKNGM
# T1 sequence (A0A6J4B0E7 1-733, one chain of several): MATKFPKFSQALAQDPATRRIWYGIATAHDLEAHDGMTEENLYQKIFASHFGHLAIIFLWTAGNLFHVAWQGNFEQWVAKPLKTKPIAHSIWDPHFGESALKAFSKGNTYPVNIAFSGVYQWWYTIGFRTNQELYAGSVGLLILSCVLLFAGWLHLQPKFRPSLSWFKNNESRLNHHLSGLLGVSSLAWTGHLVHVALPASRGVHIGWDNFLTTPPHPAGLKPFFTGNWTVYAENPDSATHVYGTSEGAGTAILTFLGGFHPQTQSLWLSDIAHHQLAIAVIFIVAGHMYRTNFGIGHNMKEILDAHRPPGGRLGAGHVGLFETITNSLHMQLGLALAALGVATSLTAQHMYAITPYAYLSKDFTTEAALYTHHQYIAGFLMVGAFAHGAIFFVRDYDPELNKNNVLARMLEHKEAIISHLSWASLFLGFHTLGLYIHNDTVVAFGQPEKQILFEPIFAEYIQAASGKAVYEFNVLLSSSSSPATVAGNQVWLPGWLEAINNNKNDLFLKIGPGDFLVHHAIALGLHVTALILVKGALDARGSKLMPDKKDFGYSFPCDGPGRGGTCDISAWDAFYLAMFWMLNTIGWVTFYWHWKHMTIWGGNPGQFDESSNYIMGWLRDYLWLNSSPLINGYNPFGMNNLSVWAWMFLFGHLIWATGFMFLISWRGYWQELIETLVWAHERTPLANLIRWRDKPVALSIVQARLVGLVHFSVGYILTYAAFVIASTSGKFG
Compound,"cryo-EM structure, 2.38 Å ([1]; chain of each in supplement)","cryo-EM structure, 2.38 Å ([1]; one of them on PsaR)","cryo-EM structure, 2.38 Å (PsaR)"
CC1=C(C#C/C(C)=C/C=C/C(C)=C/C=C/C=C(C)/C=C/C=C(C)/C=C/[C@@]23O[C@]2(C)C[C@@H](O)CC3(C)C)C(C)(C)C[C@H](O)C1 [diadinoxanthin],two Ddx and two Fx were identified in the diatom PSI core,–,–
CC(=O)O[C@H]1CC(C)(C)C(=C=C/C(C)=C/C=C/C(C)=C/C=C/C=C(C)/C=C/C=C(\C)C(=O)C[C@@]23O[C@]2(C)C[C@@H](O)CC3(C)C)[C@](C)(O)C1 [fucoxanthin],–,two Ddx and two Fx were identified in the diatom PSI core,binds one Chl a and one Fx
